Source: ChEMBL document CHEMBL1131388, “Synthesis and antitumor activity of 4-phenyl-1-arylsulfonyl imidazolidinones” (Bioorg Med Chem Lett, 1998)

Key:
A549 = assay: Cytotoxicity against human lung carcinoma A549 cell line using MTT assay
K562 = assay: Cytotoxicity against human chronic myelogenous leukemia (K562) cell line using MTT assay; type: functional, cell-based
SK-OV-3 = assay: Cytotoxicity against human ovarian adenocarcinoma (SK-OV-3) cell line using MTT assay; type: functional, cell-based
Colon 26 [1] = assay: Antitumor activity was evaluated against murine colon carcinoma (Colon26) as body weight change in BALB/c mice upon peroral administration at a dose of 65 mg/kg; type: functional, Mus musculus; conditions: route oral
Colon 26 [2] = assay: Antitumor activity was evaluated against murine colon carcinoma (Colon26) as tumor growth inhibition was determined in BALB/c mice upon peroral administration at a dose of 65 mg/kg; type: functional; conditions: Mus musculus, route oral, read-out: TGI
[3] = Antitumor activity was evaluated against Lewis lung carcinoma as body weight change in BDF1 mice upon peroral administration at a dose of 100 mg/kg; type: functional, Mus musculus; conditions: route oral
[4] = Antitumor activity was evaluated against Lewis lung carcinoma as tumor growth inhibition was determined in BDF1 mice upon peroral administration at a dose of 100 mg/kg; type: functional; conditions: Mus musculus, route oral, read-out: TGI
NCI-H23 [5] = assay: Antitumor activity was evaluated against human lung carcinoma (NCI-H23) as body weight change in human tumor xenograft mice upon peroral administration at a dose of 65 mg/kg; type: functional; conditions: route oral
NCI-H23 [6] = assay: Antitumor activity was evaluated against human lung carcinoma (NCI-H23) as tumor growth inhibition in human tumor xenograft mice upon peroral administration at a dose of 65 mg/kg; type: functional; conditions: Mus musculus, route oral, read-out: TGI
SW-620 [7] = assay: Antitumor activity was evaluated against human colon carcinoma (SW620) as body weight change in human tumor xenograft mice upon peroral administration at a dose of 65 mg/kg; type: functional; conditions: route oral
SW-620 [8] = assay: Antitumor activity was evaluated against human colon carcinoma (SW620) as tumor growth inhibition in human tumor xenograft mice upon peroral administration at a dose of 65 mg/kg; type: functional; conditions: Mus musculus, route oral, read-out: TGI
Colon 26 [9] = assay: Antitumor activity was evaluated against murine colon carcinoma (Colon26) as body weight change in BALB/c mice upon intraperitoneal administration at a dose of 4 mg/kg; type: functional, Mus musculus
Colon 26 [10] = assay: Antitumor activity was evaluated against murine colon carcinoma (Colon26) as tumor growth inhibition was determined in BALB/c mice upon intraperitoneal administration at a dose of 4 mg/kg; type: functional, Mus musculus
[11] = Antitumor activity was evaluated against Lewis lung carcinoma as body weight change in BDF1 mice upon intraperitoneal administration at a dose of 4 mg/kg; type: functional, Mus musculus
[12] = Antitumor activity was evaluated against Lewis lung carcinoma as tumor growth inhibition was determined in BDF1 mice upon intraperitoneal administration at a dose of 4 mg/kg; type: functional, Mus musculus
NCI-H23 [13] = assay: Antitumor activity was evaluated against human lung carcinoma (NCI-H23) as body weight change in human tumor xenograft mice upon intraperitoneal administration at doses of 1,2,3mg/kg; type: functional
NCI-H23 [14] = assay: Antitumor activity was evaluated against human lung carcinoma (NCI-H23) as tumor growth inhibition in human tumor xenograft mice upon intraperitoneal administration at doses of 1,2,3mg/kg; type: functional
SW-620 [15] = assay: Antitumor activity was evaluated against human colon carcinoma (SW620) as body weight change in human tumor xenograft mice upon intraperitoneal administration at doses of 1,2,3mg/kg; type: functional
SW-620 [16] = assay: Antitumor activity was evaluated against human colon carcinoma (SW620) as tumor growth inhibition in human tumor xenograft mice upon intraperitoneal administration at doses of 1,2,3mg/kg; type: functional

Structure (SMILES)	IC50 (A549)	IC50 (K562)	IC50 (SK-OV-3)	also measured
O=C1NC(c2ccccc2)CN1S(=O)(=O)c1ccc2c(c1)CCC2 (stereo not drawn)	4.74 µM	42.7 µM	12.1 µM	–
O=C(c1ccc([N+](=O)[O-])cc1)N1CCc2cc(S(=O)(=O)N3CC(c4ccccc4)NC3=O)ccc21 (stereo not drawn)	3.45 µM	18 µM	4.24 µM	–
O=C(c1ccccc1)N1CCc2cc(S(=O)(=O)N3CC(c4ccccc4)NC3=O)ccc21 (stereo not drawn)	0.44 µM	4.12 µM	0.56 µM	–
Nc1ccc(C(=O)N2CCc3cc(S(=O)(=O)N4CC(c5ccccc5)NC4=O)ccc32)cc1 (stereo not drawn)	0.2 µM	0.44 µM	1.24 µM	Body weight change (Colon 26 [1]): 0.4 g; inhibition in vivo at 65 mg/kg (Colon 26 [2]): 55.6%; Body weight change [3]: -1 g; inhibition in vivo at 100 mg/kg [4]: 84.3%; Body weight change (NCI-H23 [5]): 0.6 g; inhibition in vivo at 65 mg/kg (NCI-H23 [6]): 67%; Body weight change (SW-620 [7]): 1 g; inhibition in vivo at 65 mg/kg (SW-620 [8]): 87%
COc1cccc2c1C(=O)c1c(O)c3c(c(O)c1C2=O)C[C@@](O)(C(=O)CO)C[C@@H]3O[C@H]1C[C@H](N)[C@H](O)[C@H](C)O1 [DOXORUBICIN]	–	1.77 µM	4.15 µM	Body weight change (Colon 26 [9]): 3 g; TCI (Colon 26 [10]): 42.5%; Body weight change [11]: 2 g; TCI [12]: 60.4%; Body weight change (NCI-H23 [13]): -2.6 g; TCI (NCI-H23 [14]): 39%; Body weight change (SW-620 [15]): -2.6 g; TCI (SW-620 [16]): 49%
O=C(Nc1ccc(Cl)cc1)NS(=O)(=O)c1ccc2c(c1)CCC2 [SULOFENUR]	36.4 µM	50.1 µM	223 µM	–
